Starred links: 1 amine or outer side, 2 acyl side, 3 side chain; linkers in the order of their positions; H or OH if unused. Positions of bridges follow the written chain, without caps; N, C: chain ends. Non-standard residues stand in square brackets, D forms with d. Residues, ends and D or L forms follow the SMILES beside them. ξ: configuration not given here. *: point of attachment. ξAbu(βξ-NH2) = CC(N[*:3])C(N[*:1])C(=O)[*:2]; ξAsp(βξ-Me) = CC(C(=O)O)C(N)C(=O)O; X2 = O=C(CCc1ccc(N[*:1])cc1)[*:2]; X1 = O=C(Cc1ccc(N[*:1])cc1)[*:2]; ξAbu(3ξ-NH2) = CC(N)C(N)C(=O)O; Lauroyl = CCCCCCCCCCCC(=O)*; Pip = O=C(O)[CH]1CCCCN1

As a reminder, the MIC is the least concentration at which growth counts as inhibited. For orientation: MTD means the largest dose that counted as tolerated. A word on the half-life: it is the time needed for the level to fall by half in the phase considered. A lower half-life goes with rapid decline. A word on the ED50: it is the dose that gives a 50% effect, or the effect in half of the subjects.

The subject of series [1] is Staphylococcus aureus (MSSA). Particulars: 24 h. The procedure, abridged: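 Broth microdilution MIC per NCCLS M7-A6 with doubling serial dilutions, in cation-adjusted Mueller-Hinton broth supplemented with 0.625 mM calcium.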
Series [2] can be described thus: Acute toxicity, maximum tolerated dose (MTD). Particulars: Swiss CD1, mouse, in vivo, iv. The procedure: Another measure of toxicity is the maximum tolerated dose (MTD), which is determined as a dose level that is not accompanied by mortality or life-threatening toxicity. The dose ratio between toxic and therapeutic effect is the therapeutic index. […] The data obtained from these cell culture assays and animal studies can be used in formulating a dosage range that is not toxic for use in human subjects. […] The dosage may vary within this range depending upon the dosage form employed and the route of administration utilized. The exact formulation, route of administration and dosage can be chosen by the individual physician in view of the patient's condition or need thereof (see, e.g., Fingl et al., 1975, In: The Pharmacological Basis of Therapeutics, Chapter 1).
For example, to examine acute toxicity, lipopeptide antibiotics of the invention can be tested in an animal model, such as Swiss CD1 mice, to determine the MTD. In certain embodiments, the animals used to test toxicity of a particular compound can be approximately 5-6 weeks old at the start of the experiment and weigh 22-26 g. The lipopeptides may be administered intravenously (i.v.) into, for example, the caudal tail vein at dose levels that range from about 50 to about 500 mg/kg, or from about 75 to about 250 mg/kg, or from about 100 to about 200 mg/kg, or at a dose range at or below 100 mg/kg. The animals are generally observed immediately after administration, 1-2 hours post administration, 5-8 hours post administration, and once daily thereafter. Observations include both the activity level of the mouse as well as any physical side effects from the administered dose. The animal weight is recorded on day 0 (immediately before dosing) and on day 7.

For series [3], the system named is S. aureus Smith (SAU0017, ATCC 19636). Kind of series: Intraperitoneal murine model of protection against infection (ED50, Table 21). The class given is in vivo, Staphylococcus aureus. Particulars: Swiss CD1 mice infected i.p., compound i.v. From the text:
(§1) A variety of in vivo models may be used to assess the antimicrobial properties of lipopeptide derivative compounds of this disclosure. For example, antimicrobial compounds of the instant disclosure may be tested for efficacy by measuring a compound's ability to protect a mouse against a microbial infection, such as an infection or disease caused by or related to Gram-positive bacteria, including Staphylococcus aureus, Streptococcus pneumoniae, and Enterococcus faecalis. […] A certain period after infection, mice are then individually treated, for example intravenously (i.v.), with a lipopeptide derivative of this disclosure.
(§2) Antimicrobial lipopeptide derivatives of the instant invention were tested for antimicrobial activity against Gram-positive bacteria in an intraperitoneal (i.p.) murine model (i.e., bacteria were injected i.p. and lipopeptide compounds were administered intravenously (i.v.)). Mice were infected with Staphylococcus aureus, Streptococcus pneumoniae, or Enterococcus faecalis, which were prepared as follows: S. aureus Smith (SAU0017, ATCC 19636) were grown in culture overnight on trypticase soy broth, harvested and then resuspended in fresh media containing 5% mucin (Sigma Chemical Co.); S. pneumoniae (SPN 0032, ATCC 10813) were grown overnight on blood agar plates and re-suspended in 0.9% sterile saline; and E. faecalis EFS0040 (clinical isolate) were grown overnight in culture on blood heart infusion broth, washed and resuspended in 0.9% saline and mixed with equal volume of sterile fecal rat extract. Swiss CD1 mice were each infected i.p. with bacteria at the following doses: S. aureus at 10^6 CFU/mouse; S. pneumoniae at 10^2 CFU/mouse; or E. faecalis at 10^7.5 CFU/mouse. […] The ED50 for each compound was calculated using the method of Reed and Meunch (Am. J. Hyg. 27: 493, 1938).

Series [4] is described as follows: In vivo half-life after single i.v. administration, mice. Particulars: female, Swiss CD1, mouse, plasma, iv, 10 mg/kg. Here is the method:
Yet other exemplary in vivo models can be used to characterize the pharmacokinetics and pharmacodynamic parameters of antimicrobial compounds of this disclosure. Some parameters that can be measured include an in vivo half-life of a compound, elimination rate and clearance, volume of distribution, and bioavailability. For example, briefly, compounds can be administered as a single i.v. or oral (p.o.) dose in mice or rats. At various time points (ranging from 1 minute to 72 hours), blood from treated animals is collected and the concentration of lipopeptide derivative in the ex vivo plasma can be quantified by, for example, liquid chromatography with mass spectrometric detection (LC/MS). After quantification, pharmacokinetics parameters can be calculated using methods known in the art, such as a one compartment model with mono-exponential decay and linear regression analysis (see, e.g., Fantin et al., Antimicrob. Agents Chemotherap. 35: 1413. 1991).
A pharmacokinetic parameter that can be measured, and which aids in determining efficacy, after a single i.v. administration of an antimicrobial lipopeptide derivative of the instant disclosure is the systemic half-life of the compound. Briefly, test compounds were dissolved in a 5% mannitol solution (pH was then adjusted) to a concentration of 1 mg/mL (w/v). A single intravenous injection in the lateral caudal vein of Swiss CD1 mice (5 to 6 weeks old, female) or Sprague Dawley rats (male) was used to administer the lipopeptide derivative at a final dose of 10 mg/kg. At various time points (ranging from about 4 minutes to about 24 hours for mice, and 48 or 72 hours for rats) mice were sacrificed and blood was harvested. The concentration of lipopeptide derivative in ex vivo plasma was quantified using liquid chromatography (LC) with mass spectrometric detection (MS).

For series [5], the system named is S. pneumoniae (SPN 0032, ATCC 10813). The series is described as follows: Intraperitoneal murine model of protection against infection (ED50, Table 21). It is filed as in vivo, Streptococcus pneumoniae. As to conditions: Swiss CD1 mice infected i.p., compound i.v.
Source text: as §1, §2

Series [6] relates to Streptococcus pneumoniae (SPN0002). The series is described as follows: Lung infection model in neutropenic mice. It is filed as in vivo. Here is the method:
Antimicrobial lipopeptide derivatives of the instant invention were tested for antimicrobial activity against Gram-positive bacteria in an intranasal (i.n.), immunocomprimised murine lung infection model (i.e., bacteria were innoculated i.n. and lipopeptide compounds were administered i.v.). Streptococcus pneumoniae (SPN0002) were grown on 5% sheep blood agar plates for 24 h at 37° C., harvested and then resuspended in 0.9% saline. A group of three to four Swiss CD1 mice were rendered neutropenic by administration of cyclophosphamide (Sigma Chemical Co.; 150 mg/kg, i.p.) on day −4 and −1 before infection. At time −18 to −24 hours, each mouse was infected i.n. dropwise via the nares with 50 μl of the prepared bacterial inoculum (i.e., a dose of about 5×10^6 CFU/mouse). At 18 to 24 hours post-infection, the groups of mice received i.v. (1) a lipopeptide derivative formulated in a 5% D-mannitol solution at a dose of about 1 mg/kg, 3 mg/kg, 10 mg/kg, or 30 mg/kg; (2) the 5% mannitol vehicle alone at a dose volume of 10 mL/kg; or (3) a known antibiotic, such as ampicillin, at a similar dose as the lipopeptide compounds. At 18 to 24 hours post-antibiotic treatment, mice were sacrificed and lungs harvested. Lungs were sampled by spreading homogenates on blood agar plates and incubating for 24 h at 37° C., and then counting the number of CFU. The EKill (killing effect; i.e., log10 CFU/lung reduction as compared to CFU count at intial treatment time) and the EMax (maximum reduction effect; i.e., log10 CFU/lung reduction as compared to CFU count of control at 24 hours) for each compound was calculated.

In series [7] the test system is E. faecalis EFS0040 (clinical isolate). Kind of series: Intraperitoneal murine model of protection against infection (ED50, Table 21). It is filed as in vivo, Enterococcus faecalis. Particulars: Swiss CD1 mice infected i.p., compound i.v.
Source text: as §1, §2

Regarding `CCCCCCCCCCCC(=O)Nc1ccc(CC(=O)NC(CC(=O)O)C(=O)NC2C(=O)N3CCCCC3C(=O)NC(C(C)C(=O)O)C(=O)NC(CC(=O)O)C(=O)NCC(=O)NC(CC(=O)O)C(=O)NCC(=O)NC(C(C)N)C(=O)NC(C(C)C)C(=O)N3CCCC3C(=O)NC2C)cc1` (stereo not drawn) [Compound 119, C12-(p-Apa)-Amphomycin] (Lauroyl-[X1]D[ξAbu(βξ-NH2)][Pip][ξAsp(βξ-Me)]DGDG[ξAbu(3ξ-NH2)]VP; lactam 3-C; configuration not given here), the MIC in series [1] was 0.25 µg/mL. In series [2], this compound showed a maximum tolerated dose (MTD) at 7 days of 50 to 200 mg/kg. The “ED50 in Mice, S. aureus (SAU0017)” value in series [3] is reported as 7.6 mg/kg. Also, in series [4], the half-life came to 4.22 h.

On to amphomycin [reference compound], for which the “ED50 in Mice, S. pneumoniae (SPN0032)” value in series [5] is 2.0 mg/kg. Besides, the “ED50 in Mice, S. aureus (SAU0017)” value in series [3] is 5.4 mg/kg.

`CC1(C)S[C@@H]2[C@H](NC(=O)[C@H](N)c3ccccc3)C(=O)N2[C@H]1C(=O)O` [ampicillin, reference compound]: the “EKill (log10 CFU/lung reduction versus count at initial treatment time)” value in series [6] (30 mg/kg i.v.) worked out at 1.8 log10 CFU/lung. In addition, the “log10 CFU/lung reduction (EMax, versus control at 24 hours)” value in series [6] (highest dose level 30 mg/kg i.v.) came to 2.58 log10 CFU/lung. The ED50 in series [7] (Enterococcus faecalis, read-out: ED50 in Mice, E. faecalis (EFS0040)) was determined as 4.2 mg/kg.

As for `CC(=O)Nc1ccc(C(=O)NC(CC(=O)O)C(=O)NC2C(=O)N3CCCCC3C(=O)NC(C(C)C(=O)O)C(=O)NC(CC(=O)O)C(=O)NCC(=O)NC(CC(=O)O)C(=O)NCC(=O)NC(C(C)N)C(=O)NC(C(C)C)C(=O)N3CCCC3C(=O)NC2C)cc1` (stereo not drawn) [Compound 85, C2-PABA-Amphomycin], the minimum inhibitory concentration (MIC) in series [1] was 2 to 4 µg/mL. The maximal tolerated dose (MTD) at 7 days in series [2] was 50 to 200 mg/kg. Further, in series [3], the “ED50 in Mice, S. aureus (SAU0017)” value is on record as 6.5 mg/kg. In addition, the “ED50 in Mice, E. faecalis (EFS0040)” value in series [7] was 5.7 mg/kg. This compound yielded a half-life in series [4] of 5.17 h.

For the compound `CCCCCCCCCCCC(=O)Nc1ccc(CCC(=O)NC(CC(=O)O)C(=O)NC2C(=O)N3CCCCC3C(=O)NC(C(C)C(=O)O)C(=O)NC(CC(=O)O)C(=O)NCC(=O)NC(CC(=O)O)C(=O)NCC(=O)NC(C(C)N)C(=O)NC(C(C)C)C(=O)N3CCCC3C(=O)NC2C)cc1` (stereo not drawn) [Compound 108, C12-(p-Aminophenylpropanoyl)-Amphomycin] (Lauroyl-[X2]D[ξAbu(βξ-NH2)][Pip][ξAsp(βξ-Me)]DGDG[ξAbu(3ξ-NH2)]VP; lactam 3-C; configuration not given here), the minimal inhibitory concentration (MIC) in series [1] was 0.5 µg/mL. The compound further came in with an MTD at 7 days in series [2] of 50 to 200 mg/kg. Besides, in series [3], the “ED50 in Mice, S. aureus (SAU0017)” value stood at 6.5 mg/kg. For the same compound, the half-life in series [4] stood at 4.55 h.

As for aspartocin [reference compound], the “ED50 in Mice, S. pneumoniae (SPN0032)” value in series [5] is listed as 0.65 mg/kg. Moreover, in series [3], the “ED50 in Mice, S. aureus (SAU0017)” value worked out at 5.4 mg/kg.

On to `CCCCCCCCCCCCCCC(=O)NC(CC(=O)O)C(=O)NC1C(=O)N2CCCCC2C(=O)NC(C(C)C(=O)O)C(=O)NC(CC(=O)O)C(=O)NCC(=O)NC(CC(=O)O)C(=O)NCC(=O)NC(C(C)NC(=O)CN)C(=O)NC(C(C)C)C(=O)N2CCCC2C(=O)NC1C` (stereo not drawn) [Compound 3, C15-Amphomycin-9-Gly], for which, in series [5], the “ED50 in Mice, S. pneumoniae (SPN0032)” value amounted to 1.3 mg/kg. For the same compound, in series [2], the MTD at 7 days fell in the range of 50 to 200 mg/kg. In addition, the “ED50 in Mice, S. aureus (SAU0017)” value in series [3] worked out at 4.9 mg/kg. The half-life in series [4] worked out at 6.65 h.

The values are drawn from patent US7868135B2, “Compositions of lipopeptide antibiotic derivatives and methods of use thereof” (priority 2003, dated 2011).
